# “Also recorded” adds a separate entry of the source.
# How the values were obtained:
# Assay type in all cases: in vivo
# [1] = system: Arabidopsis seedlings (lateral roots); experiment: Lateral root emergence and lateral root capacity
# Description: (§1) ANRs were counted in seedlings vertically grown on half strength MS (with 0.5% sucrose +1% agar, 0.5 g/L MES, pH 5.7) media 8 days post-stratification (dps) using a dissection microscope. To investigate ANR formation after root apical meristems (RAM) excision (ANR-RE), RAM of seedlings were excised using sterile scalpels at 5 dps and then grown for another 3 days prior to counting the number of emerged ANRs. RAM of seedlings were excised at 8 dps and then grown for another 3 days prior to counting the number of emerged LRs. For determining the effect of anchorene on lateral roots, the number of emerged lateral roots were counted using a dissection microscope at 8 dps. For primary root length measurements, seedlings were measured using the publicly available ImageJ software (downloaded from rsbweb.nih.gov/ij/) after taking digital photographs. For adventitious root assay, the number of emerged adventitious roots per plant were counted after 5 days of treatment on plates with or without anchorene.
# [2] = system: Arabidopsis seedlings (anchor roots); experiment: Anchor root (ANR) emergence/formation in seedlings without RAM excision; settings: for seedlings forming ANRs: no RAM excision, 8 DAG
# Experimental: Sterilized Col-0 and mutants seeds were kept at 4° C. in darkness for 3 days to stimulate seed germination, and then sown on half strength MSO plates (with 0.5% sucrose +1% agar, 0.5g/L MES, pH 5.7) supplemented with the indicated chemicals as described below or in the Figures. Plates were vertically grown in PERCIVAL® growth chambers under long day (16 h light/8 h dark, 22° C., 60% relative humidity, light density: 4000 LUX) LED white light [HYPERIKON® 16 W LED Light Bulb A21, 16 W (100 W Equivalent), CRI92, 1620 Lumens, 4000K (Daylight Glow)] conditions. Light fluorescence rates were measured using a digital LUX meter (PEAKTECH® 5025).
# as §1
# Prior to the anchor root (ANR) measurements, seeds from 10 ecotypes (Po-0, Is-0, Wu-0, Col-0, Cvi-0, Hi-0, Ove-0, Sav-0, Ler and Kin-0) were harvested from plants grown in long-day photoperiod conditions (16h light/8 h darkness, 22° C., 60% humidity). Seeds of all 10 ecotypes were surfaced sterilized and incubated in sterile water at 4° C. for 8 days, for uniform germination. Natural ANR emergence and ANRC was measured as described above (Anchor root assays) for each ecotype. 20 μM anchorene was used to test the responses of the Po-0 and Is-0 ecotypes to anchorene.
# Excision of the root apical meristems (RAM) triggers ANR formation (FIGS. 3C-D). […] About 9% of control Col-0 seedlings developed ANRs under normal conditions, while approximately 50% formed ANRs upon RAM excision (FIGS. 4B-C). […] Higher anchorene concentrations (10 and 20 μM) enhanced this ratio to 97% and 100%, respectively (FIGS. 4B-C). There was also an increase in the number of seedlings that developed two ANRs from 0% in the untreated control to approximately 80% upon application of 20 μM anchorene (FIGS. 4B-C). Using a wide range of concentrations, a dose-response curve was established in the presence and absence of RAM excision. […] Thus, the promotion of ANRs is not caused by inhibiting primary root growth.
# [3] = system: Arabidopsis seedlings (root gravitropism); experiment: Root gravitropism of NPA treated seedlings; settings: 5 DAG seedlings, 1 μM NPA plus 20 μM anchorene
# Experimental: To determine if the effect of anchorene on ANR development is caused by changes in auxin distribution, the activity of anchorene in the presence of NPA was evaluated. […] Vertical grown 5 DAG seedlings on half MSO with indicated treatments were analyzed. The orientation of root growth was measured and then was assigned to one of twelve 30° sectors. […] The auxin efflux carrier PIN3 plays an important role in LR initiation and emergence. Therefore, the effect of anchorene on PIN3 using the pPIN3::PIN3-GFP marker line was examined.
# [4] = system: Arabidopsis collet transcriptome; experiment: RNA-Seq of collet transcriptome; settings: collets
# Experimental: For anchorene and NPA treatment, Col-0 seedlings were vertically grown on half MSO (with 0.5% sucrose+1% agar, 0.5 g/L MES, pH 5.7) plates supplemented with 20 μM anchorene or 1 μM NPA for 5 days. RAM excision treatment was applied by excising the RAM from 4.5-day old Col-0 seedlings, and then tissue was collected 12 hours after excision (5 DAG). About 2 mm of tissue at the collet site (see FIG. 11I) was collected at 5 DAG for all chemicals and physical treatment. Tissue from approximately 50 seedlings were used for each sample. Total RNA was extracted by Direct-zolTM RNA MiniPrep Plus (200 Preps) w/Zymo-Spin™ (ZYMO research). 100 ng total RNA were used for RNA Hi-seq 4000 (ILLUMINA). Each treatment includes three independent replicates.
# Prior to the analysis of RNA-Seq data, the adaptor sequences and low-quality ends of sequenced reads were trimmed using Trimmomatic v0.32 and quality-checked using FastQC v0.11 (www.bioinformatics.babraham.ac.uk/projects/fastqc). To quantify the expression level of genes, the remaining reads were pseudo-aligned to the publicly available TAIR10 A. thaliana transcriptome (release 34) using kallisto v0.43.0. The estimated read counts and calculated transcripts per million (TPM) were subsequently passed to sleuth v0.28.1 for differential expression analysis. […] Gene ontology and KEGG pathway enrichment analyses were conducted using clusterProfiler and Pathview. RNA-Seq data can be accessed at NCBI via BioProject ID PRJNA489360.
# [5] = system: Arabidopsis seedlings (anchor roots after RAM excision); experiment: ANR formation after root apical meristem excision (ANR-RE)
# Description: as §1
# ANR formation under carotenoid-deficient conditions was monitored to determine the role of endogenous carotenoids in ANR development. […] Therefore, ANR formation was monitored after RAM excision (ANR-RE) to stimulate ANR development. ANR measurements were used as an indicator of ANR formation capacity under different conditions. […] Norflurazon (NF) and 2-(4-chlorophenylthio)-triethylamine hydrochloride (CPTA), which block phytoene desaturation and lycopene cyclization, respectively were tested (FIG. 6A). The effect of D15, an inhibitor of CCDs was also investigated. Application of D15 to Arabidopsis seedlings is known to lead to an increase in carotenoid levels.
smiles,measurement,setting,value
"C\C(C=O)=C/C=C/C=C(\C)C=O [anchorene, 12,12′-diapocarotene-12,12′-dial]",lateral root emergence,"[1]; 5 and 10 μM anchorene, 8 dps",no effect; also recorded: did not affect
same,LR capacity in untreated seedlings,"[1]; LR No. after RAM excision, 20 μM anchorene",inhibits LR capacity
same,LR formation (LR capacity) after D15 treatment,"[1]; LR No. after RAM excision, 20 μM anchorene and 100 μl D15",no significant effect
same,LR length,[1]; anchorene application (FIGS. 3E-F),did not affect
same,seedlings forming ANRs,"[2]; 5 μM, control about 9%",55%
same,seedlings forming ANRs,[2]; 10 μM,97%
same,seedlings forming ANRs,[2]; 20 μM,100%
same,seedlings that developed two ANRs,"[2]; 20 μM, untreated control 0%",approximately 80%
same,ANR emergence in different Arabidopsis ecotypes,"[2]; Col-0, Is-0 and Po-0, 20 μM anchorene",promotes ANR emergence
same,ANR formation,[2]; screen at 5 or 25 μM,promotion of ANR formation
same,dose-response of ANR formation,"[2]; wide range of concentrations, in presence and absence of RAM excision (FIG. 3J)",dose dependent
same,gravitropism in NPA treated seedlings,[3],largely restored
same,genes with opposite effects of RAM excision and anchorene treatment,[4]; 20 μM anchorene,36 genes
same,genes with similar response to RAM excision and anchorene treatment,[4]; 20 μM anchorene,1459 genes
same,overlapping genes on which NPA and anchorene exert the opposite effect,"[4]; 20 μM anchorene, 1 μM NPA",2791 (83%) genes
same,overlapping genes whose expression level is affected by NPA and anchorene,"[4]; 20 μM anchorene, 1 μM NPA, 5 days",3355 genes
same,effect on auxin biosynthesis genes,[4]; anchorene application,induction of many auxin biosynthesis genes
same,rescue of ANR-RE in carotenoid biosynthesis inhibitor treated seedlings,[5]; 20 μM anchorene simultaneous with 1 μM NF or 100 μM CPTA,blocked inhibition of ANR-RE
same,rescue of ANR-RE in NPA treated seedlings,[5]; 20 μM anchorene with 1 μM NPA,partially compensated
same,ANR formation in arf7arf19 double mutant,"[5]; arf7arf19, 20 μM anchorene or after RAM excision",did not form any ANR
same,rescue of ANR-RE in psy mutant,"[5]; psy mutant, 20 μM anchorene",restored wild-type ANR-RE

# Source: patent publication US11523610B2, “Regulating plant growth using a diapocarotenoid” (King Abdullah University of Science and Technology, priority 2018, dated 2022)
